Experimental data as given in patent publication US20250270246A1, “LINCOSAMIDES AND USES THEREOF” (President and Fellows of Harvard College, priority 2022, published 2025).
Where a name gives a salt, the structure may show the parent alone. Read-outs that look alike come from different tables or passages of the source.

Tests used:
Assay type in all cases: cell-based
S. aureus HAV#016, MRSA = assay: MIC by broth microdilution (CLSI); conditions: Staphylococcus aureus, CaMHB, 24 h incubation
How it was run: (§1)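 Strains were grown overnight on blood agar at 35° C, suspended in CaMHB to 0.5 McFarland, then diluted to 5×10^5 CFU/mL. Compounds (64-0.06 μg/mL, 2.5% final DMSO) were tested by CLSI microdilution. Visible growth was scored after 24 h.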

[1] = test system: K. oxytoca HAV#450; Clinical; assay: MIC by broth microdilution (CLSI); conditions: Klebsiella oxytoca, read-out: MIC K. oxytoca HAV#450
How it was run: as §1

[2] = test system: E. coli ATCC 25922 (HAV#006); assay: MIC by broth microdilution (CLSI); conditions: for MIC: Escherichia coli, ATCC25922, 24 h, read-out: MIC E. coli ATCC 25922
How it was run: as §1

[3] = test system: S. pyogenes HAV#004, ATCC 19615; assay: MIC by broth microdilution (CLSI); conditions: Streptococcus pyogenes, ATCC19615, CaMHB, 24 h incubation
How it was run: as §1

[4] = test system: S. aureus ATCC 29213 (HAV#001); assay: MIC by broth microdilution (CLSI); conditions: for MIC: Staphylococcus aureus, ATCC29213, 24 h, read-out: MIC S. aureus ATCC 29213
How it was run: as §1

[5] = test system: E. faecium HAV#318, VRE; clinical; assay: MIC by broth microdilution (CLSI); conditions: Enterococcus faecium, read-out: MIC E. faecium HAV#318, VRE
How it was run: as §1

E. coli HAV#038, ΔTolC = assay: MIC by broth microdilution (CLSI); conditions: Escherichia coli, 24 h, read-out: MIC E. coli HAV#038, ΔTolC
How it was run: as §1

E. coli HAV#040, LptD = assay: MIC by broth microdilution (CLSI); conditions: Escherichia coli, 24 h, read-out: MIC E. coli HAV#040, LptD
How it was run: as §1

[6] = test system: S. pneumoniae HAV#003, ATCC 49619; assay: MIC by broth microdilution (CLSI); conditions: Streptococcus pneumoniae, ATCC49619, CaMHB, 24 h incubation
How it was run: as §1

[7] = test system: S. aureus HAV#202, ATCC 700699; assay: MIC by broth microdilution (CLSI); conditions: Staphylococcus aureus, ATCC700699, CaMHB, 24 h incubation
How it was run: as §1

[8] = test system: E. faecalis ATCC 29212 (HAV#005); assay: MIC by broth microdilution (CLSI); conditions: for MIC: Enterococcus faecalis, ATCC29212, 24 h, read-out: MIC E. faecalis ATCC 29212
How it was run: as §1

S. pneumoniae c-ermB = assay: MIC by broth microdilution (CLSI); conditions: Streptococcus pneumoniae, 24 h, read-out: MIC S. pneumoniae c-ermB
How it was run: as §1

E. faecium JMI-990536 = assay: MIC by broth microdilution (CLSI); conditions: Enterococcus faecium, JMI990536, 24 h, read-out: MIC E. faecium JMI-990536
How it was run: as §1

H. influenzae ATCC 49247 = assay: MIC by broth microdilution (CLSI); conditions: Haemophilus influenzae, ATCC49247, 24 h, read-out: MIC H. influenzae ATCC 49247
How it was run: as §1

E. coli Clinical (armA) = assay: MIC by broth microdilution (CLSI); conditions: for MIC: Escherichia coli, 24 h, read-out: MIC E. coli Clinical (armA)
How it was run: as §1

E. coli ΔtolC = assay: MIC by broth microdilution (CLSI); conditions: CaMHB, 24 h incubation; for MIC: Escherichia coli, 24 h, read-out: MIC E. coli ΔtolC, ΔtolC
How it was run: as §1

K. pneumoniae JMI-991193 = assay: MIC by broth microdilution (CLSI); conditions: for MIC: Klebsiella pneumoniae, JMI991193, 24 h, read-out: MIC K. pneumoniae JMI-991193
How it was run: as §1

S. aureus Clinical (cfr) = assay: MIC by broth microdilution (CLSI); conditions: for MIC: Staphylococcus aureus, 24 h, read-out: MIC S. aureus Clinical (cfr)
How it was run: as §1

S. aureus MMX 3035 = assay: MIC by broth microdilution (CLSI); conditions: for MIC: Staphylococcus aureus, MMX3035, 24 h, read-out: MIC S. aureus MMX 3035
How it was run: as §1

E. coli lptD mutant = assay: MIC by broth microdilution (CLSI); conditions: CaMHB, 24 h incubation; for MIC E. coli lptD mutant: lptD mutant / ΔlptD mutant, formate salt
How it was run: as §1

[9] = test system: A. baumannii ATCC 19606 (HAV#010); assay: MIC by broth microdilution (CLSI); conditions: Acinetobacter baumannii, ATCC19606, 24 h, read-out: MIC A. baumannii ATCC 19606
How it was run: as §1

[10] = test system: P. aeruginosa ATCC 27853 (HAV#009); assay: MIC by broth microdilution (CLSI), Chelex 100-treated broth; conditions: HAV#009, ATCC 27853, CaMHB pre-treated with Chelex 100 ion exchange resin, 24 h
Protocol: Minimum inhibitory concentrations (MICs) were determined by the broth microdilution method following the Clinical and Laboratory Standards Institute (CLSI) guidelines. Test organisms consisted of standard reference strains from the American Type Culture Collection (ATCC; Manassa, VA, USA) and clinical isolates obtained from JMI Laboratories Inc. (North Liberty, IA, USA), Micromyx repository (MMX; Kalamazoo, MI, USA), and Massachusetts Eye and Ear Hospital (Boston, USA). Before the start of the MIC experiment, standard and test compound stock solutions were prepared in dimethyl sulfoxide (DMSO, Aldrich D2650) at a stock concentration of 2,560 μg/mL. The compound concentration range typically employed for each experiment was 64-0.06 μg/mL (2.5% final DMSO concentration). Iboxamycin was used as a comparator in all experiments. All bacterial strains were sub-cultured on blood agar plates (tryptic soy agar with 5% sheep blood, Hardy Diagnostics) and incubated overnight at 35° C. Organisms were suspended in cation-adjusted Mueller-Hinton broth (CaMHB, BD 212322) and optical density was adjusted to 0.5 McFarland standard. Suspensions were further diluted to obtain a final inoculum of 5×10^5 CFU/mL for broth microdilution experiments. The minimum concentration of compound required to inhibit visible bacterial growth after 24 h of incubation was recorded as the MIC in μg/mL. MICs for P. aeruginosa were recorded in cation-adjusted Mueller-Hinton broth which had been pre-treated with Chelex 100 ion exchange resin according to procedures reported in Ito et al. Antimicrob Agents Chemother (2016) 60 (12), 7396-7401.

[11] = test system: S. aureus HAV#031, c-ermA; assay: MIC by broth microdilution (CLSI); conditions: Staphylococcus aureus, 24 h, read-out: MIC S. aureus HAV#031, c-ermA
How it was run: as §1

[12] = test system: K. pneumoniae HAV#402, FQ-R; assay: MIC by broth microdilution (CLSI); conditions: Klebsiella pneumoniae, 24 h, read-out: MIC K. pneumoniae HAV#402, FQ-R
How it was run: as §1

S. aureus HAV#216, cfr = assay: MIC by broth microdilution (CLSI); conditions: Staphylococcus aureus, 24 h, read-out: MIC S. aureus HAV#216, cfr
How it was run: as §1

[13] = test system: S. pyogenes HAV#033, c-ermB; assay: MIC by broth microdilution (CLSI); conditions: Streptococcus pyogenes, 24 h, read-out: MIC S. pyogenes HAV#033, c-ermB
How it was run: as §1

[14] = HAV#006, ATCC 25922, CaMHB, 24 h incubation
[15] = HAV#001, ATCC 29213, CaMHB, 24 h incubation
[16] = JMI-991193, CaMHB, 24 h incubation
[17] = Clinical (cfr), CaMHB, 24 h incubation
[18] = MMX 3035, CaMHB, 24 h incubation

SMILES: CC(C)C[C@@H]1CCO[C@@H]2[C@H](CN[C@@H]2C(=O)N[C@@H]2CC/C=C\CSC3OC2C(O)C(O)C3O)C1 (stereo partly drawn) [FSA1503055, (4S,5aS,8S,8aR)-4-isobutyl-N-((1R,8R,9R,10R,11S,12R,Z)-10,11,12-trihydroxy-13-oxa-2-thiabicyclo[7.3.1]tridec-4-en-8-yl) octahydro-2H-oxepino[2,3-c]pyrrole-8-carboxamide formate salt]
- MIC (S. aureus HAV#016, MRSA): 0.5 µg/mL
- MIC ([1]; CaMHB, 24 h incubation): > 64 µg/mL
- MIC [2, 14]: > 64 µg/mL
- MIC [3]: 0.125 µg/mL
- MIC [4, 15]: 0.5 µg/mL
- MIC ([5]; CaMHB, 24 h incubation): 4 µg/mL
- MIC (E. coli HAV#038, ΔTolC): 16 µg/mL
- MIC (E. coli HAV#040, LptD): 64 µg/mL
- MIC [6]: 0.25 µg/mL
- MIC [7]: 32 µg/mL

SMILES: CC(C)C[C@@H]1CCO[C@@H]2[C@H](CN[C@@H]2C(=O)N[C@H]2[C@H]3O[C@H](SC[C@H](F)C/C=C\[C@H]2C)[C@H](O)[C@@H](O)[C@H]3O)C1 [FSA1609033, (4S,5aS,8S,8aR)—N-((1R,4R,8R,9R,10R,11R,12S,13R,Z)-4-fluoro-11,12,13-trihydroxy-8-methyl-14-oxa-2-thiabicyclo[8.3.1]tetradec-6-en-9-yl)-4-isobutyloctahydro-2H-oxepino[2,3-c]pyrrole-8-carboxamide formate salt]
- MIC [8]: ≤ 0.06 µg/mL
- MIC (S. pneumoniae c-ermB): ≤ 0.03 µg/mL
- MIC (E. faecium JMI-990536): ≤ 0.06 µg/mL
- MIC (H. influenzae ATCC 49247): ≤ 0.06 µg/mL
- MIC (E. coli Clinical (armA)): 4 µg/mL
- MIC (E. coli ΔtolC): ≤ 0.06 µg/mL
- MIC (K. pneumoniae JMI-991193): 2 µg/mL
- MIC [2]: 1 µg/mL
- MIC (S. aureus Clinical (cfr)): 0.25 µg/mL
- MIC (S. aureus MMX 3035): 0.25 µg/mL
- MIC (E. coli lptD mutant; Escherichia coli, 24 h, read-out: MIC E. coli lptD mutant, lptD mutant / ΔlptD mutant): 0.125 µg/mL
- MIC [4]: ≤ 0.06 µg/mL
- MIC [9]: 1 µg/mL

SMILES: CC(C)C[C@@H]1CCO[C@@H]2[C@H](CN[C@@H]2C(=O)N[C@@H]2C/C=C/C(CN3CCOCC3)CSC3OC2C(O)C(O)C3O)C1 (single isomer, unassigned) [FSA1608056, formate salt]
- MIC P. aeruginosa ATCC 27853 [10]: 32 µg/mL
- MIC E. faecalis ATCC 29212 ([8]; HAV#005, ATCC 29212, CaMHB, 24 h incubation, formate salt): 4 µg/mL
- MIC E. coli Clinical (armA) (E. coli Clinical (armA); Clinical (armA), CaMHB, 24 h incubation, formate salt): 64 µg/mL
- MIC E. coli ΔtolC (E. coli ΔtolC; ΔtolC): 16 µg/mL
- MIC K. pneumoniae JMI-991193 (K. pneumoniae JMI-991193; [16]): >64 µg/mL
- MIC E. coli ATCC 25922 ([2]; HAV#006, ATCC 25922, CaMHB, 24 h incubation, formate salt): 64 µg/mL
- MIC S. aureus Clinical (cfr) (S. aureus Clinical (cfr); [17]): >64 µg/mL
- MIC S. aureus MMX 3035 (S. aureus MMX 3035; [18]): >64 µg/mL
- MIC E. coli lptD mutant (E. coli lptD mutant): 4 µg/mL
- MIC S. aureus ATCC 29213 [4, 15]: 4 µg/mL

SMILES: CC(C)C[C@@H]1CCO[C@@H]2[C@H](CN[C@@H]2C(=O)N[C@@H]2C/C=C/C(CN3CCOCC3)CSC3OC2C(O)C(O)C3O)C1 (single isomer, unassigned) [FSA1608057, formate salt]
- MIC ([10]; Pseudomonas aeruginosa, ATCC27853): 32 µg/mL
- MIC ([8]; HAV#005, ATCC 29212, CaMHB, 24 h incubation): 2 µg/mL
- MIC (E. coli Clinical (armA); Clinical (armA), CaMHB, 24 h incubation): > 64 µg/mL
- MIC (E. coli ΔtolC): 16 µg/mL
- MIC (K. pneumoniae JMI-991193; [16]): > 64 µg/mL
- MIC [2, 14]: > 64 µg/mL
- MIC (S. aureus Clinical (cfr); [17]): > 64 µg/mL
- MIC (S. aureus MMX 3035; [18]): > 64 µg/mL
- MIC E. coli lptD mutant (E. coli lptD mutant): 32 µg/mL
- MIC [4, 15]: 4 µg/mL

SMILES: CC(C)C[C@@H]1CCO[C@@H]2[C@H](CN[C@@H]2C(=O)N[C@H]2C3OC(SCC/C=C\[C@H]2C)C(O)C(O)C3O)C1 (single isomer, unassigned) [FSA1507066, formate]
- MIC [8]: ≤ 0.06 µg/mL
- MIC [11]: 0.5 µg/mL
- MIC ([1]; 24 h): 4 µg/mL
- MIC [2]: 4 µg/mL
- MIC [12]: 16 µg/mL
- MIC (S. aureus HAV#216, cfr): 0.5 µg/mL
- MIC [4]: ≤ 0.06 µg/mL
- MIC ([5]; 24 h): 0.25 µg/mL
- MIC (E. coli HAV#038, ΔTolC): 0.125 µg/mL
- MIC (E. coli HAV#040, LptD): 0.25 µg/mL
- MIC [13]: 0.125 µg/mL
- MIC [9]: 2 µg/mL
